How the values were obtained:
Assay type in all cases: cell-based, human
K562 cells = test: apoptosis, cell cycle and viability of K562 cells by flow cytometry; conditions: K562 cells
Procedure: K562 cells are from a myelogenous leukemia line that expresses Bcr-Abl kinase. A. K562 cells were treated with TU50 for 24 hours after which time the cells were treated with annexin V-FITC and propidium iodide. Cells were then analyzed by flow cytometry. Cells showing only annexin V-FITC were considered apoptotic whereas cells showing both annexin V-FITC and propidium iodide were considered necrotic. N=2. All points show a significant difference to the vehicle (DMSO) with p<0.05. […] All points show a significant difference to vehicle (DMSO) with p<0.02. C. Same as A, but the incubation period was 8 hours. N>2. All points show a significant difference to DMSO with p<0.02. D, K562 cells were treated with TU50 for 4 hours. Samples were analyzed by SDS-PAGE and immunoblotting with anti-Bcr-Abl antibody. E. Quantitation of blot in D. The signal for tubulin was used to normalize the Bcr-Abl signal. N=3.
FIG. 40 depicts data showing that diphenyl carbonates induce the degradation of Bcr-Abl kinase. A. K562 cells were treated with C17 for 24 h (1 dose) then analyzed for Bcr-Abl expression by western blot with anti-Abl antibody. B. Quantitation of blots in A normalized to actin. C. K562 cells were treated with C17 for 24 h then the amount of cells in G1 and apoptosis were recorded (N=3). D. K562 were treated with C15 for 4 h then analyzed for Bcr-Abl expression using western blot. E. Quantitation of Bcr-Abl from D normalized to tubulin (N=4). F. Same K562 lysates were separately analyzed for K63-linked ubiquitin. G. Quantitation of blots in F (N=4). Differences between all bars is significant p<0.01). H. K562 cells were treated with C15 for 24 h after which time cells were fixed in ethanol, treated with propodium iodide/RNAse then analyzed by FACS. Viability was calculated using forward and side scatter. I. Same experiment as H but red fluorescence was measured to determine DNA content

Mdm2, p53, p21/WAF1 = test: Mdm2, p53 and p21/WAF1 levels in MCF7 cells; conditions: for Mdm2 levels: C17 4 h, C15 6 hours dosed every 2 hours
Procedure: FIG. 35 depicts data showing that diphenylcarbonates reduce the levels of Mdm2 and cause the accumulation of P53 and P21 in MCF7 cells. A. MCF7 cells were treated with C17 for 4 h and Mdm2 levels were measured. B. As in A, P53 measured. C. As in A, P21 measured. D. MCF7 and B16/F10 cells were treated with C17 every 24 hours. After 72 hours, the number of viable cells was measured by Alamar Blue®. See also FIG. 41 and FIG. 42.
C. Effect of C15 on PARP cleavage and P53 levels. […] E. Effects of C15 on Mdm2 and P21 levels. […] F. DMSO treated cells. […] C17 was dosed every 24 h. After this time, cells were analyzed by flow cytometry.
Transfected cells were harvested 1.5 days post transfection. […] Typically clarified lysate was analyzed.
The ability of diphenyl carbonates to inhibit USP7 function in cells was also assessed. The ubiquitin-ligase Mdm2 is a substrate for USP7. Mdm2 is responsible for the ubiquitination and subsequent degradation of p53. Mdm2 is over-expressed in many cancer cells, resulting in the depletion of p53. Mdm2 is itself degraded via an ubiquitin-dependent process. USP7 removes ubiquitin from Mdm2, protecting it from degradation. Like Mdm2, USP7 is over-expressed in many cancers. Inhibition of USP7 promotes the proteasome-mediated degradation of Mdm2, which causes an increase in p53 levels, as well as those of the downstream signaling protein p21/WAF1, and ultimately induces apoptosis.

USP9x and USP7 = test: HA-Ub-VS activity profiling of lysates from treated HEK 293T cells, USPs; conditions: 100 μM, 2 hours
Procedure: FIG. 32 depicts data showing that diphenyl carbonates inhibit DUBs in HEK 293T cells. A. Viability of HEK 293T cells assessed by the propidium iodide exclusion method: diphenyl carbonate (100 μM), bortezomib (V, 20 μM) and G5 (2 μM). N≧3, mean+/−s.d. B. HEK 293T cells were treated with the stated compounds (50 μM) for 2 h and then assayed for the accumulation of K48-linked Ub species. C. As in A, but K63-linked Ub was assayed. D. HEK 293T cells were treated with C14, C15, C17, C18 (100 μM) or DMSO for 2 hours, then harvested, lysed and treated with HA-Ub-VS. After 30 min, lysates were analyzed by SDS-PAGE and probed for HA, tubulin and actin. An intervening lane was removed for clarity. E. HEK 293T cells expressing Ub-G76V-GFP were treated with diphenyl carbonates (100 μM), bortezomib (20 μM) and G5 (2 μM). […] N>3, Mean+/−s.d. See also FIG. 39.
Lysate labeling assay on untransfected cells (1.5 mg/mL) was run with the stated concentration of inhibitor (or 1% DMSO control) for between 19-60 mins. After this time HA-Ub-VS (1.5-0.7 μM) was added and incubated for 19 mins. After this time reaction mixture (9 μL) was removed and quenched in 2× (final concentration) reducing loading buffer. […]
Lysates from HEK 293T cells treated with diphenylcarbonates were analyzed by HA-Ub-VS activity profiling to assess the selectivity of DUB inhibition in the context of a cell.

NCc1ccc(OC(=O)Oc2ccc(Br)cc2)cc1 [Compound C15, 4-(aminomethyl)phenyl(4-bromophenyl)carbonate]
viability, G1 and apoptotic cells (K562 cells; 24 h, at 50 μM): decrease in viability, and increase in G1 and apoptotic cells
p21/WAF1 levels (Mdm2, p53, p21/WAF1): decreased p21/WAF1
p53 levels (Mdm2, p53, p21/WAF1): increased P53 levels
Mdm2 levels (Mdm2, p53, p21/WAF1): decreased Mdm2

NCc1ccc(OC(=O)Oc2ccc3ccccc3c2)cc1 [Compound C17]
G1 and apoptotic cells (K562 cells; 24 h incubation): dose-dependent increase in G1 and apoptotic cells
p21/WAF1 levels (Mdm2, p53, p21/WAF1): robust increase in p21/WAF1 levels
p53 levels (Mdm2, p53, p21/WAF1): concomitant increase in p53
Mdm2 levels (Mdm2, p53, p21/WAF1): Mdm2 levels decreased
HA-Ub-VS labeling of USP9x and USP7 after treatment of cells (USP9x and USP7): most potent compounds

NCc1ccc(OC(=O)Oc2cccc3ccccc23)cc1 [Compound C18]
HA-Ub-VS labeling of USP9x and USP7 after treatment of cells (USP9x and USP7): most potent compounds

Source: patent publication US20160090351A1, “INHIBITORS OF DEUBIQUITINATING PROTEASES” (BRANDEIS UNIVERSITY, priority 2013, published 2016)
